Assay results reported in paper PMC5980577 (CPT: Pharmacometrics & Systems Pharmacology, 2018).
pKi: −log10 of the molar value. Like-named read-outs stand apart in the source and are kept apart here.

Key:
[1] = test system: CYP1A2; test: CYP1A2 contribution to metabolism and retrograde intrinsic clearance; type: in vitro ADME, human; conditions: retrograde approach
[2] = test system: CYP2A6; test: CYP2A6 contribution to metabolism and retrograde intrinsic clearance; type: in vitro ADME, human; conditions: retrograde approach
[3] = test system: CYP2C9; test: CYP2C9 contribution to metabolism and retrograde intrinsic clearance; type: in vitro ADME, human; conditions: retrograde approach
[4] = test system: CYP2E1; test: CYP2E1 contribution to metabolism and retrograde intrinsic clearance; type: in vitro ADME, human; conditions: retrograde approach
[5] = test system: CYP3A4; test: CYP3A4 contribution to metabolism and retrograde intrinsic clearance; type: in vitro ADME, human; conditions: retrograde approach
[6] = test system: CYP3A5; test: CYP3A5 contribution to metabolism and retrograde intrinsic clearance; type: in vitro ADME, human; conditions: retrograde approach
[7] = molecular target: T1, CYP2C8 (Homo sapiens, UniProt P10632); test: CYP2C8 reversible; type: in vitro ADME
T1 sequence (P10632 1-490): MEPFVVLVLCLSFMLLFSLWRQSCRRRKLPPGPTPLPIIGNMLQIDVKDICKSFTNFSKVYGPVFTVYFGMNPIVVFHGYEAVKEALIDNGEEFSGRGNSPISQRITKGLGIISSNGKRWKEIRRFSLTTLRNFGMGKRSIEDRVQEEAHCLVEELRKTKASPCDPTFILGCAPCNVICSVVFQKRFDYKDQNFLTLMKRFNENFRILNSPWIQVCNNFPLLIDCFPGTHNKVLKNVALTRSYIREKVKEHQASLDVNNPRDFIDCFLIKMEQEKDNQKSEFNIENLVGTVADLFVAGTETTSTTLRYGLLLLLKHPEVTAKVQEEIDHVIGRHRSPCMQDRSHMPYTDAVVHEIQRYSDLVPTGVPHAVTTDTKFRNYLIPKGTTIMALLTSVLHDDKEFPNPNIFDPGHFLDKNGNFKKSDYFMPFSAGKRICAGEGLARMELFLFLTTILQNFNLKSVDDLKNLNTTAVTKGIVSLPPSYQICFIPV

[8] = test system: CYP3A4/5; test: CYP3A4/5 reversible; type: in vitro ADME; conditions: human
[9] = Fraction unbound in microsomal incubation; type: in vitro ADME; conditions: microsomes (microsomal incubation)
[10] = molecular target: T2, BCRP (Homo sapiens, UniProt Q9UNQ0); test: BCRP inhibition, basic static model; type: in vitro ADME
T2 sequence (Q9UNQ0 1-655): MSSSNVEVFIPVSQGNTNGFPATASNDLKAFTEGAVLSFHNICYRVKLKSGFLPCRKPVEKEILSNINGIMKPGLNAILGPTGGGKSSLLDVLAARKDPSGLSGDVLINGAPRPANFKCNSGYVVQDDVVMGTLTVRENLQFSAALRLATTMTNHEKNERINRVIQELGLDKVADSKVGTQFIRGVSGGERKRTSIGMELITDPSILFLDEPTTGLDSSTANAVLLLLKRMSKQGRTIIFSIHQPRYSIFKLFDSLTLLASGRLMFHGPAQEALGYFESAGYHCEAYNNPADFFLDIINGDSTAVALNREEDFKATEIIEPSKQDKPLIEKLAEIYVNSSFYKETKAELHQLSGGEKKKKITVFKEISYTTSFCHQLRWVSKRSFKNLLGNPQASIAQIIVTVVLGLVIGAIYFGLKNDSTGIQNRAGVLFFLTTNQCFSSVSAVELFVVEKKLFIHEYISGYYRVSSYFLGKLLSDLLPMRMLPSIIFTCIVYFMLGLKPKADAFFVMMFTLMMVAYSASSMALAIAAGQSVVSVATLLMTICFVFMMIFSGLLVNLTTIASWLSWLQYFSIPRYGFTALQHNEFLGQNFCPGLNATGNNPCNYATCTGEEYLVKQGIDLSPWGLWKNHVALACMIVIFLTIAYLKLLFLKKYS

[11] = molecular target: T3, OATP1B1 (Homo sapiens, UniProt Q9Y6L6); test: OATP1B1 inhibition, basic static model; type: in vitro ADME
T3 sequence (Q9Y6L6 1-691): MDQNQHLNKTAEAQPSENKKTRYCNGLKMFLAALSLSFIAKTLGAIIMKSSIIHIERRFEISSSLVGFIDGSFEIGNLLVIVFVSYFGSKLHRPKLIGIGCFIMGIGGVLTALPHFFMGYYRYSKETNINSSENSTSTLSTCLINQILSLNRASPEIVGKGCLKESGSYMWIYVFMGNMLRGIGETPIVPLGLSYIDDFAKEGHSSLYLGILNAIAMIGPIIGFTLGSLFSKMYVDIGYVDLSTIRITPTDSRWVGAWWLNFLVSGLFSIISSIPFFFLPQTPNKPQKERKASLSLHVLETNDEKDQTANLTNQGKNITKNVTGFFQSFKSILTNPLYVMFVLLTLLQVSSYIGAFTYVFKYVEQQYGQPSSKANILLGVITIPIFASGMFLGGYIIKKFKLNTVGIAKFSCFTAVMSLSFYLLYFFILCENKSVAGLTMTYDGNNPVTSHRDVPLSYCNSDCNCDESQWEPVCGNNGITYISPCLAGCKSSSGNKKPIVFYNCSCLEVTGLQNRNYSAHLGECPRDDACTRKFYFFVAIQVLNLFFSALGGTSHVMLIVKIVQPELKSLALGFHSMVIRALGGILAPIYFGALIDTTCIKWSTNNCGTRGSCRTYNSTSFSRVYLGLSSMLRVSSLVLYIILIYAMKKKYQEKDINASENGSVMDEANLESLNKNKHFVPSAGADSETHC

[12] = molecular target: P-glycoprotein (P-gp) (Homo sapiens, UniProt P08183); test: In vitro efflux transporter substrate study, P-gp; type: in vitro ADME
[13] = molecular target: T2, BCRP; test: In vitro efflux transporter substrate study, BCRP; type: in vitro ADME
[14] = type: in vivo; conditions: human, plasma, oral, 80 mg
[15] = cited from earlier work
[16] = test system: CYP3A4/5; conditions: in vitro data; cited from earlier work
[17] = doses studied 20–240 mg; cited from earlier work
[18] = multiple doses 80 mg once daily, no inducer
[19] = Circulating metabolites measured in plasma in clinical studies; type: in vivo, human; conditions: all studies

Sequence of P-glycoprotein (P-gp) (P08183 whole entry): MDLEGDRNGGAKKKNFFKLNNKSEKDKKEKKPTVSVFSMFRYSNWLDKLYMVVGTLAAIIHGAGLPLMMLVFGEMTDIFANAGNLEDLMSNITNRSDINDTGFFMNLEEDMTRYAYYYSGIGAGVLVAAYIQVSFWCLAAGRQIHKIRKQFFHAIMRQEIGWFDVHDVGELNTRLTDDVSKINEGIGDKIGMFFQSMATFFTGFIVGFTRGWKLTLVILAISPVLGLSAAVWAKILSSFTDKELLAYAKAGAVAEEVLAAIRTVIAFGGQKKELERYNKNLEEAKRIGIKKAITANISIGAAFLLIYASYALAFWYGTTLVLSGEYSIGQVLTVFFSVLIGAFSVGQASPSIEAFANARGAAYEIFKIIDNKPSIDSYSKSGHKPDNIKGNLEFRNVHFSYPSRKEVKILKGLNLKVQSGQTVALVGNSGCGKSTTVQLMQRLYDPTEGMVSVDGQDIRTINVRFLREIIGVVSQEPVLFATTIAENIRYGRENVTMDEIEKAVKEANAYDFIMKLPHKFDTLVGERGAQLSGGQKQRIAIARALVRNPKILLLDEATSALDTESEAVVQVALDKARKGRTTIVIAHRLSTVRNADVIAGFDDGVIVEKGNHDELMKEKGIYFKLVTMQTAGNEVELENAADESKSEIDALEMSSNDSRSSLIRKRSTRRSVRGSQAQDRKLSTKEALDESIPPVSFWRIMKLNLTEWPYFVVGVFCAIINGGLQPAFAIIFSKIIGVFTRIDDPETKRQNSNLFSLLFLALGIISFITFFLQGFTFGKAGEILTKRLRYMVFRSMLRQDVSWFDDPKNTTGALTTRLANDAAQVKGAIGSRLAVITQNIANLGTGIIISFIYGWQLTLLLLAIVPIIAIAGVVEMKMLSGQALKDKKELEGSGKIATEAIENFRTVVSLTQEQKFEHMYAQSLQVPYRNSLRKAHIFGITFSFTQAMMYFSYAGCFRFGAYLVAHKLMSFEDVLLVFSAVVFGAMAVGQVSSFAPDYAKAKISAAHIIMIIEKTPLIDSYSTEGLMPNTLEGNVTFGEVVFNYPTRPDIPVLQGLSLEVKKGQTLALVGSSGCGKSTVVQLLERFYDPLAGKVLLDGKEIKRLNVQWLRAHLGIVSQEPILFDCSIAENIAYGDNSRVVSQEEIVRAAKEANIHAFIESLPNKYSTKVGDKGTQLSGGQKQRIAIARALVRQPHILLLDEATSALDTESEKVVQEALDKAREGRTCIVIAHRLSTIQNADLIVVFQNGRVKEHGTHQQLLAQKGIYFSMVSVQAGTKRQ

C=CC(=O)Nc1cc(Nc2nccc(-c3cn(C)c4ccccc34)n2)c(OC)cc1N(C)CCN(C)C [Osimertinib]
CYP1A2 CLint [1]: 0.520 µL/min/pmol of isoform
CYP2A6 CLint [2]: 1.749 µL/min/pmol of isoform
CYP2C9 CLint [3]: 0.479 µL/min/pmol of isoform
CYP2E1 CLint [4]: 0.111 µL/min/pmol of isoform
CYP3A4 CLint [5]: 0.731 µL/min/pmol of isoform
CYP3A5 CLint [6]: 0.210 µL/min/pmol of isoform
pKi [7]: 4.94
pKi [8]: 5.59
fraction unbound [9]: 0.0261
pKi [10]: 5.70
BCRP Potential for DDI ([10]; basic static model): likely
pKi [11]: 4.66
pKi ([11]; human): 4.28
substrate for P-gp [12]: substrate
substrate for BCRP [13]: substrate
AUC [14]: 11.5 µM·h
median (range) Tmax [15]: 6 (3–24) hours
median time of maximum plasma concentration (Tmax) ([15]; oncology patients): 6 h
oral clearance ([15]; oncology patients): 14.2 L/h
volume of distribution ([15]; oncology patients): around 997 L
increase of Cmax and AUC with dose ([15]; single oral doses of 20 to 240 mg): dose proportional
fraction metabolized (fm) CYP3A [16]: 54%
maximum tolerated dose [17]: no maximum tolerated dose was reached
Css,max Geo.mean (range) [%CV], observed [18]: 545 (258 to 1,220) nM

C=CC(=O)Nc1cc(Nc2nccc(-c3cn(C)c4ccccc34)n2)c(OC)cc1N(C)CCNC [AZ7550]
contribution of metabolite to total drug-related exposure [19]: < 10%
